What is called inhibition is the share of the control response that was lost under treatment.

Data on four compounds can be found in US8263587B2, “Benzoxazepine compounds, their preparation and use” (Piramal Healthcare Limited, priority 2006, dated 2012).

Each structure is given as a SMILES string.

Holding throughout (format): cell-based
The test system of one series is 3T3-L1 pre-adipocytes. The series is described as follows: Potentiation of insulin-stimulated lipogenesis in 3T3-L1 adipocytes. The conditions noted are these: over insulin control = 1. Here is the method:
3T3-L1 pre-adipocytes were grown to confluence in 25 ml culture flasks in DMEM (Dulbecco's Modified Eagle's Medium, with 25 mM glucose) containing 10% fetal calf serum (FCS) and antibiotics in a humidified atmosphere of 5% CO2 and 95% air at 37° C. The medium was changed every 2-3 days. The cells were trypsinised at confluency using 0.25% trypsin and transferred to another flask.
For the assay, cells were grown in 24 well plates. Induction of differentiation was done when the cells had grown to confluency with DMEM containing 5% FCS and supplemented with 0.5 mM IBMX (3-Isobutyl-1-methylxanthine), 0.5 μM DEX (dexamethasone) and 1 μg/ml insulin. […] The medium was changed three times, each at an interval of 2 days. On the day of termination of medium changes, lipogenesis assay was performed.
3T3-L1 cells were grown to confluency in 24 well plates. […] On the day of termination of the assay the cells were incubated in […] KRHB (Krebs-Ringer Hepes buffer) for 2 hr at 37° C. in a CO2 incubator. This was replaced with fresh KRHB with 0.1 mM glucose containing 100 nM insulin, test compound or insulin plus test compound. Lipogenesis was initiated by the addition of 20 μl of 50 μCi/ml [^3H]-D-Glucose to each well and incubation for 90 min at 37° C. in a CO2 incubator. The reaction was terminated by aspirating the medium from each well and washing the cells rapidly 3 times with ice-cold PBS (phosphate buffered saline). 500 μl of 0.2 N NaOH was added to lyse the cells. 450 μl was aliquoted into scintillation vials and scintillation cocktail added. The vials were read in Liquid Scintillation Counter. Results are expressed as fold activation of the standard or test compound over the control (Table 2).

Series [1] concerns isolated rat hepatocytes. The series is described as follows: Inhibition of gluconeogenesis in isolated rat hepatocytes. The following applies: 5 mM fructose. Here is the method: Assay protocol for determination of inhibition of gluconeogenesis by compounds in isolated rat hepatocytes:
Hepatocytes were isolated by collagenase digestion of perfused livers from male Wistar rats fasted overnight according to the method described in J. Cell. Science., 56, 233-244, 1982, the disclosure of which is incorporated by reference for the teaching of the method.
(§1) The assay was done in three groups: basal, control and test. The test compounds were added to the vials at different concentrations. The isolated hepatocytes were added to the vials and they were incubated at 37° C. for 15 min. After 15 min, 5 mM fructose (precursor for gluconeogenesis) was added to the control and test group. Vials were again incubated at 37° C. for one hour with constant shaking (80 cycles/min.). Incubation was terminated by centrifuging the reaction mixture at 3000 rpm for 5 min. The supernatant was used for determination of both glucose and lactate dehydrogenase (LDH) (Table 1).
An active compound would decrease the amount of glucose formed, which is read at 520 nm by glucose oxidase-peroxidase method.

Series [2] concerns isolated rat hepatocytes. The series is described as follows: LDH leakage from isolated rat hepatocytes. The conditions noted are these: isolated rat hepatocytes. Here is the method: as §1
The LDH activity is measured, by the method described in Meth. Enz. Ana. 3, 118-125, 1984, the disclosure of which is incorporated by reference for the teaching of the method, as the amount of pyruvate consumed by continuously monitoring the decrease in absorbance due to oxidation of NADH (Nicotinamide Adenine Dinucleotide-reduced form) at 339 nm.
On the technique in general: LDH in the medium is a marker of cell lysis.

Setting [3] is: Rattus norvegicus, Hepatocyte, read-out: Gluconeogenesis (glucose production) % inhibition.

Regarding `O=C1NC(=O)C(=Cc2ccc3c(c2)CN(c2nc4ccccc4o2)CCO3)S1` [Compound of Example 6, 5-(4-Benzooxazol-2-yl-2,3,4,5-tetrahydro-benzo[f][1,4]oxazepin-7-ylmethylene)-thiazolidine-2,4-dione], the “Fold stimulation of insulin-stimulated lipogenesis” value (from here on “Fold stimulation”) with 3T3-L1 pre-adipocytes (10 μM with insulin) was determined as 1.4 fold.

As for `COC(=O)C(Cc1ccc2c(c1)CN(c1ccccn1)CCO2)C(=O)OC` [Compound of Example 2], in the series on 3T3-L1 pre-adipocytes (with insulin, concentration not given), the “Fold stimulation” value is on record as 2 fold.

Regarding `O=C1NC(=O)C(=Cc2ccc3c(c2)CN(c2ccccn2)CCO3)S1` [Compound of Example 3, 5-(4-Pyridin-2-yl-2,3,4,5-tetrahydro-benzo[f][1,4]oxazepin-7-ylmethylene)-thiazolidine-2,4-dione], the results for the “Gluconeogenesis (glucose production) % inhibition” value with isolated rat hepatocytes [1] (50 μM) and with isolated rat hepatocytes [1] (100 μM) were 42% and 74%, respectively. Further, the inhibition at 10 µM in the series with isolated rat hepatocytes [1] (setting [3]) came to 10%. For the same compound, the inhibition at 25 µM in the series with isolated rat hepatocytes [1] (setting [3]) is 36%. For the same compound, the inhibition at 75 µM in the series with isolated rat hepatocytes [1] (Rattus norvegicus, Hepatocyte, 75 μM, read-out: Gluconeogenesis (glucose production) % inhibition) came to 51%. Moreover, the figures for the “Fold stimulation” value in the series on 3T3-L1 pre-adipocytes (1 μM with insulin), in the series on 3T3-L1 pre-adipocytes (10 μM with insulin) and in the series on 3T3-L1 pre-adipocytes (25 μM with insulin) were 1.2 fold, 1.4 fold and 1.7 fold, respectively. Besides, the LDH % leakage is reported as 5% with isolated rat hepatocytes [2] (10 μM); 5% in the series on isolated rat hepatocytes [2] (25 μM); 6% in the series on isolated rat hepatocytes [2] (50 μM); 7% in the series on isolated rat hepatocytes [2] (75 μM); 7% in the series on isolated rat hepatocytes [2] (100 μM).

As to `CN(CCOc1ccc(CC2SC(=O)NC2=O)cc1)c1ccccn1` (stereo not shown) [Rosiglitazone, reference compound], in the series on isolated rat hepatocytes [1] (Rattus norvegicus, Hepatocyte, 5 μM, read-out: Gluconeogenesis (glucose production) % inhibition), the inhibition at 5 µM worked out at 11%. Also, the inhibition at 10 µM in the series on isolated rat hepatocytes [1] (setting [3]) was 28%. Further, in the series on isolated rat hepatocytes [1] (setting [3]), the inhibition at 25 µM was determined as 43%. The inhibition at 50 µM in the series on isolated rat hepatocytes [1] (Rattus norvegicus, Hepatocyte, 50 μM, read-out: Gluconeogenesis (glucose production) % inhibition) came to 57%. In the series with isolated rat hepatocytes [1] (Rattus norvegicus, Hepatocyte, 100 μM, read-out: Gluconeogenesis (glucose production) % inhibition), the inhibition at 100 µM amounted to 68%. For the same compound, the LDH % leakage with isolated rat hepatocytes [2] (5 μM) was 9%; in the series on isolated rat hepatocytes [2] (10 μM), 9%; in the series on isolated rat hepatocytes [2] (25 μM), 10%; with isolated rat hepatocytes [2] (50 μM), 11%; with isolated rat hepatocytes [2] (100 μM) it was 15%.
